Values of other authors as cited in patent US8592424B2, “Topical regional neuro-affective therapy” (Afgin Pharma LLC, priority 2008, dated 2013).
Counter-ions that a name gives are not always drawn.

Legend:
[1] = tested on: alpha-adrenergic receptors; conditions: in vitro tests; some alpha-adrenergic receptors
[2] = tested on: patients with advanced Parkinson's disease, "off periods"
[3] = target: D2 dopamine receptor (Homo sapiens, UniProt P14416); conditions: in vitro tests
[4] = tested on: serotonin receptors; conditions: in vitro tests
[5] = target: dopamine D1 receptor (Homo sapiens, UniProt P21728); conditions: in vitro tests
[6] = tested on: patients, some with impotence with erectile dysfunction; conditions: apomorphine injections, observed and reported
[7] = target: D4 dopamine receptor (Homo sapiens, UniProt P21917); conditions: in vitro tests
[8] = target: D3 dopamine receptor (Homo sapiens, UniProt P35462); conditions: in vitro tests
[9] = reported clinical trials, despite using Tigan

D2 dopamine receptor, sequence (P14416 whole entry): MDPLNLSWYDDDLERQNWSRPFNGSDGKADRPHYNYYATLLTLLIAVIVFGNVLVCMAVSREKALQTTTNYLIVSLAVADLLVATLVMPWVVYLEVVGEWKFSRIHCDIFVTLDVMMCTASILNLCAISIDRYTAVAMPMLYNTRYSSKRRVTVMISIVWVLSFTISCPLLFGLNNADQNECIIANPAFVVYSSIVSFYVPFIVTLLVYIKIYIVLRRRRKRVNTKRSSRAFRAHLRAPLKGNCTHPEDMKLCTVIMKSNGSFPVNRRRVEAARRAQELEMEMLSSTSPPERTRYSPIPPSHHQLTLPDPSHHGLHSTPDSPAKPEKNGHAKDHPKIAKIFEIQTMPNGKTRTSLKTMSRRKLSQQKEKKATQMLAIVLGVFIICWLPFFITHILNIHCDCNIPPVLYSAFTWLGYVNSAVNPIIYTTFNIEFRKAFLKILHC
D4 dopamine receptor, sequence (P21917 whole entry): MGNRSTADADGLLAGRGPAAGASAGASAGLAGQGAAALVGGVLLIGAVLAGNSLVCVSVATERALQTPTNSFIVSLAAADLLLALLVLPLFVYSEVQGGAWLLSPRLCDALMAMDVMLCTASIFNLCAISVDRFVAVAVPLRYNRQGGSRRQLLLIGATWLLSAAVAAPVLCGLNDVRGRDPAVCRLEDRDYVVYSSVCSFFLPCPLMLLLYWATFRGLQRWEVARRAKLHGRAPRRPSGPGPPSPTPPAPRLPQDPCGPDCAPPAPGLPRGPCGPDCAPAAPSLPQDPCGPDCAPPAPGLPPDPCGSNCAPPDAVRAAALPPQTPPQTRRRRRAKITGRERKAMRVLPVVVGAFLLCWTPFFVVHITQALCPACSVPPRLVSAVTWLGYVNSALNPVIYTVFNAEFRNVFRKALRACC
D3 dopamine receptor, sequence (P35462 whole entry): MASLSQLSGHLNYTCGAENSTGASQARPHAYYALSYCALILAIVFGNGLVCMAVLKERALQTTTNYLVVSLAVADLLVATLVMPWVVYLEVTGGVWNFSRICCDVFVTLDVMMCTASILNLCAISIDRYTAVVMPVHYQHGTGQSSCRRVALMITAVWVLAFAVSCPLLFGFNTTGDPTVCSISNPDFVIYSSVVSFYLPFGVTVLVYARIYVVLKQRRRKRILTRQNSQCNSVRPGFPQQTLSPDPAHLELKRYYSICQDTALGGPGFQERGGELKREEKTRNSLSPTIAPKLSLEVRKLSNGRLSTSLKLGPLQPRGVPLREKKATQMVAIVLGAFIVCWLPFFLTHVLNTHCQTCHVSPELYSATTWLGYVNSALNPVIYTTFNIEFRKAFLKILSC
dopamine D1 receptor, sequence (P21728 whole entry): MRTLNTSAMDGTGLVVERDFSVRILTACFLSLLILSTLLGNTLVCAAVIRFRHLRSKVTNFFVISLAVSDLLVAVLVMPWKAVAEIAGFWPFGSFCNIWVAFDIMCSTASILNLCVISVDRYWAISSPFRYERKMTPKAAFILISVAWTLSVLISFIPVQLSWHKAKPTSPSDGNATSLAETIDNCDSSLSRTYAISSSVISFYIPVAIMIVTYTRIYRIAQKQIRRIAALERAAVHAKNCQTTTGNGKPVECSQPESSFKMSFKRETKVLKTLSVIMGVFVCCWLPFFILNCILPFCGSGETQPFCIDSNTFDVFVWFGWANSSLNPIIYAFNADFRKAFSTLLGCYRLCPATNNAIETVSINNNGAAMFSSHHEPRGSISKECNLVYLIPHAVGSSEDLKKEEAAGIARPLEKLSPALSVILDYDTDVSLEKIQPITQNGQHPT

water solubility | SMILES | affinity [1] | other commonly reported adverse events in clinical trials ([2]; oral and injectible forms) | patients experiencing nausea [2, 9] | patients experiencing vomiting [2, 9] | time to take effect ([2]; subcutaneous injection, reported) | solubility in water (at 80 degrees Celsius) | affinity [3] | affinity [4] | affinity [5] | effect on sexual function [6] | affinity [7] | affinity [8]
 | CN1CCc2cccc3c2[C@H]1Cc1ccc(O)c(O)c1-3 [Apomorphine hydrochloride] | moderate | dizziness, yawning, somnolence, rhinorrhea, sweating, flushing, pallor, hallucinations, edema, and chest pain | 31% | 11% | 10 to 15 min | soluble | moderate | low | low | improvement in sexual function | high | moderate
high | c1cnc2cc3c(cc2n1)[C@@H]1CNC[C@H]3C1 [varenicline] |  |  |  |  |  |  |  |  |  |  |  | 
